Assay results as given in patent EP0753308A2, “Use of lactoferrin for therapy of acute or recurrent infectious diseases by streptococcus pyogenes or other intracellular gram positive pathogen bacteria” (priority 1995, dated 1997).

Columns and labels:
[1] = tested on: S. pyogenes 95/1; assay: Invasion assay in HeLa cell monolayers (gentamicin protection, CFU of viable intracellular bacteria); assay type: cell-based, Streptococcus pyogenes; conditions: control 5 x 10^5; for Internalized bacteria (CFU/ml): absence of lactoferrin
Experimental: (§1) Streptococcus pyogenes strain 95/1 was cultured in Todd-Hewitt broth (Difco lab.). Blood agar was used for counting coloning forming units (C.F.U.). Staphylococcus aureus strain 94/3 was cultured in Brain Hearth Infusion (BHI). Mannitol Salt Agar was used for C.F.U. counts. HeLa S3 human epitelial cells (derived from epithelioid carcinoma of human cervix) were grown as monolayers at 37°C in Eagle's MEM containing 1.2 g/l of NaCo3, 2 mM glutamine, 100 U/ml penicillin, 0.1 mg/ml streptomycin and 10% heat inactivated foetal calf serum in 5% CO2 on 24-well tissue culture clusters (costar) by loading 1 ml of a solution of 1.5x10^5 cells/ml.
(§2) Semiconfluent monolayers of HeLa cells were infected with a bacterial suspension (at a multiplicity of infection of 100 exponentially grown bacteria per cell) deriving from a bacterial subculture after an incubation at 37°C for 120 min in the presence and absence of lactoferrin added at no cytotoxic nor antibacterial concentrations. After the bacterial infection (2 h at 37°C ), the monolayer was five-fold carefully washed with fosfate buffered saline (PBS) and then fresh medium (MEM, Seromed) containing 200 ug/ml of gentamicin was added. This antibiotic is well known for its impossibility to penetrate into the eukaryotic cells and to exert its bactericidal effect only towards the extracellular bacteria (free or adhered to the cells). Alter 2 h incubation period at 37°C in gentamicin, the infected cells were whashed three times with PBS and lysed by the addition of cold 0.1% Triton-X 100.
The cellular lysate was diluited with PBS and plated on selective agar medium in order to determine viable intracellular bacteria.

[2] = tested on: S. aureus; assay: as above; assay type: cell-based, Staphylococcus aureus; conditions: proteins 1 mg/ml; erythromycin 0.02 mg/ml where present; control 7 x 10^5
Experimental: as §1
as §2, with “Alter 2 h incubation period at 37°C in gentamicin, the infected cells were whashed three times with PBS and lysed by the addition of cold 0.1% Triton-X 100.” left out

Compound | Internalized bacteria (CFU/ml) ([1]; bacteria cultured with subinhibiting antibiotic 0.1 ug/ml) | Internalized bacteria (CFU/ml) ([1]; bacteria cultured with subinhibiting antibiotic 20 ug/ml) | Intracellular bacteria (CFU/ml S. pyogenes) ([1]; proteins 1 mg/ml, erythromycin 0.02 mg/ml where present) | Intracellular bacteria (CFU/ml S. aureus) [2]
CC1(C)S[C@@H]2[C@H](NC(=O)[C@H](N)c3ccccc3)C(=O)N2[C@H]1C(=O)O [Ampicillin, ampicillin] | 2 x 10^5 CFU/ml |  |  | 
CC[C@H]1OC(=O)[C@H](C)[C@@H](O[C@H]2C[C@@](C)(OC)[C@@H](O)[C@H](C)O2)[C@H](C)[C@@H](O[C@@H]2O[C@H](C)C[C@H](N(C)C)[C@H]2O)[C@](C)(O)C[C@@H](C)C(=O)[C@H](C)[C@@H](O)[C@]1(C)O [Erythromycin, erythromycin] |  | 2 x 10^5 CFU/ml | 2 x 10^5 CFU/ml | 3 x 10^5 CFU/ml
